Test [1] concerns PVECs. Put plainly: qPCR of EndMT markers in PVECs treated in vitro with Simvastatin. It is filed as cell-based, human. The following applies: 5 µM Simvastatin sodium salt, 24 h. Here is the method:
For portal vein endothelia cell (PVEC) isolation, excess surrounding fat tissue was meticulously removed from the vein using sterile scissors, and any residual blood was washed away with DPBS. Subsequently, the tubular vein was opened to expose the inner part of the vein facing upward. Trypsin EDTA 0,05% (Gibco, #25300054) was then added on the upper surface and incubated for 5 minutes at 37°C. EGM-2 medium was then added abundantly over the tissue and a cell scrapper (TPP-Reactiva, #99002) was used to carefully scrap the surface of the inner wall several times, in order to detach the endothelial cells from the vein wall. The EGM-2 medium with cells in suspension was then centrifuged at 300 g for 5 minutes and pellet resuspended in 2 ml of fresh EGM-2. Cells were then seeded in a well from a 6-well plate pre-coated with human plasma fibronectin at a concentration of 1 µg/cm^2 (Sigma, #F0895), and fresh media changed every other day until confluence. On average, confluence was reached 10 days after isolation.
In order to isolate PVECs from other cell types that were also scrapped during the initial tissue processing, cells were detached, stained with anti-CD31-FITC (BD Bioscience, #555445) and CD144 -BV786 (BD Bioscience, #565672) antibodies and FACS sorted in a FACS Aria II cell sorter (BD Biosciences) according to manufacturer's instructions. PVECs were selected as CD31^+ CD144^+ cells and seeded back to either a 6-well plate, T25 or T75 flasks, depending on the cell amount obtained. Once ECs reached confluency, a third of the cells were collected in RLT buffer (Qiagen) for subsequent RNA isolation (passage 1), a third was used for flow cytometry purity analysis and the final one third was passaged into a new 6-well plate. From this moment onwards, […] portal vein endothelial cells (PVECs) were expanded at a split ratio of 1:5 until senescence. At every passage, a fraction of the cells was cryopreserved for future experiments, while the rest was used for flow cytometry purity check, RLT collection and tube assays. Endothelial phenotype of PVECs was routinely monitored by cell morphology, flow cytometry, immunofluorescence and tube formation capacity.
(§1) PVECs were seeded in 6-well plates in triplicates (for RNA collection) and in 60mm dishes (for protein collection) at a concentration of 6x10^4 cells/ml and grow for 24 h to obtain 70% confluency. PVECs from CT (n=3), CH (n=7) and CH-PVT (n=6) were then treated in vitro with 5 µM Simvastatin sodium salt (Sigma, #567022) for another 24 h and collected in either RLT or RIPA buffer for further analysis by means of quantitative real-time polymerase chain reaction (qPCR) or Western blotting, respectively. Its effect on mesenchymal markers and EndMT promoters, including TFs and all the molecules involved in EndMT initiation or progression previously described, was studied.
Total RNA was isolated by RNeasy Micro and Mini kit (Qiagen) as stated above. First-strand cDNA was synthesized using the High Capacity cDNA Reverse Transcription Kit (Applied, Thermo Fisher, #4368814) according to the manufacturer's instructions. Quantitative real-time PCR (qPCR) was performed using PowerUp™ sybr® Green Master Mix (Applied Biosystems, #A25776) with technical duplicates using an AB1 Prism® 7900 HT Cycler (Applied Biosystems). PCR cycle parameters were as follows: 95 °C for 10' followed by 40 cycles at 95 °C for 15" and 60 °C for 1'. Results were obtained with the Sequence Detection System 3.2 software (Applied Biosystems) and further analyzed by the 2-ΔΔCt method. GAPDH was used as a loading control. Results are shown as fold-change.
(In general: Real-time PCR tracks product formation cycle by cycle.)

Test [2] has as its system phosphor-SMAD2. Put plainly: Western blot of PVECs treated in vitro with simvastatin. The following applies: FIG. 10. It counts as cell-based, human. The protocol: as §1
Proteins were extracted with RIPA buffer complemented with Halt Protease & Phosphatase inhibitors (ThermoFisher) and total protein estimated using Bradford's Reagent (Bio-Rad) following manufacturer's instructions. […] Extracted proteins were analyzed by western blot. […] Images were acquired with a LAS-4000 apparatus (Fujifilm, TDI, Alcobendas, Spain) and protein expression was determined by densitometric analysis using the Image Studio Lite software (LI-COR). Results are expressed as relative densitometric values normalized to endogenous control β-actin. […]

Setting [3] is: PVECs from CT, CH and CH-PVT, qPCR, FIG. 9.
Setting [4] is: PVEC from cirrhotic patients with or without PVT, qPCR.

For `CCC(C)(C)C(=O)O[C@H]1C[C@@H](C)C=C2C=C[C@H](C)[C@H](CC[C@@H]3C[C@@H](O)CC(=O)O3)[C@H]21` [Simvastatin, [(1S,3R,7S,8S,8aR)-8-[2-[(2R,4R)-4-hydroxy-6-oxooxan-2-yl]ethyl]-3,7-dimethyl-1,2,3,7,8,8a-hexahydronaphthalen-1-yl] 2,2-dimethylbutanoate], in test [1] (setting [3]), the “endothelial markers expression (Cd31)” value is reported as “increasing” and the “endothelial markers expression (NOs3)” value is “increasing”. In test [1] (setting [4]), the “expression of mesenchymal markers (AIFM2)” value is recorded as “reduced”, the “expression of mesenchymal markers (CDH2)” value is “reduced” and the “expression of the adhesion molecule VCAM1” value was “reduced”. For the same molecule, the “EndMT occurring in PVEC” value in test [1] (overall finding, FIG. 9) is “can ameliorate”. In test [1] (qPCR), the “GTPase (Rac2) expression” value is “decreasing”, the Serpine1 expression entry is recorded as “decreasing” and the “expression of transcription factor Snail1” value is on record as “reduced”. The phosphor-SMAD2 protein levels result in test [2] is listed as “capable of reducing”.

The values above are taken from patent publication EP4566597A1, “STATINS USEFUL IN THE TREATMENT OF SPLACHNIC VASCULAR DYSFUNCTIONS” (Hospital Clínic de Barcelona, priority 2023, dated 2025).
